According to US5616579A, “Anti-ulcer pyridyloxy derivatives, their preparation and uses” (Sankyo Company, Limited, priority 1992, dated 1997):

Columns and labels:
[1] = tested on: gastric acid output; test: Inhibition of Gastric Secretions (Shay's method, pylorus-ligated rats); format: in vivo, rat (male SD); conditions: Rattus norvegicus, intraduodenal, 4 hours
Description: Inhibition of Gastric Secretions
This test was carried out according to Shay's method [H. Shay: Gastroenterology 5, 43 (1945)] using male SD rats (5 weeks old). The rats were divided into groups, each group containing 5 rats. The animals were fasted for 24 hours before the beginning of the experiment. They were then anesthetized with ether, the abdominal region was opened, and the pylorus was ligated. A test compound suspended in a 0.5% w/v aqueous carboxymethylcellulose (CMC) solution was administered intraduodenally. After 4 hours, the rat was sacrificed by deep anesthesia with ether, and the stomach was excised. The gastric juice was removed, centrifuged for 15 minutes at 2500 rpm, and then 0.1 ml of the supernatant was taken out and titrated until the end point of neutralization with a 0.01N aqueous solution of sodium hydroxide, to determine the total gastric acidity. The amount of gastric acid secreted per hour (μEq/hr) was calculated, and the inhibition rate (R %) to the control group was calculated according to the following equation.
A: The gastric acid output of the control group (μEq/hr)
B: The amount of gastric acid output of the drug administered group (μEq/hr)

[2] = tested on: guinea pig right atrium; test: Atrial Test in Guinea Pigs (inhibition of histamine-stimulated heart rate, isolated right atrium); conditions: Cavia porcellus; test compound 1 μg/ml; 10^-5 M histamine; heart rate vs control
Description: Atrial Test in Guinea Pigs
The guinea pig right atrium in a spontaneous palpitation was excised, suspended in 40 ml of Krebs-Henselite solution, and a tension of 1 g was loaded between the atrium preparation and a transducer. The solution was aerated at a fixed rate at 37° C. 10^-5 M histamine was added, and the heart rate was recorded as control. A test compound was added to a concentration of 1 μg/ml and then, after 3 minutes, 10^-5 M histamine was added, and the heart rate was again recorded. The inhibitory rate (R %) compared to the control group was calculated according to the following equation: […]
A: The heart rate of the control group
B: The heart rate of the group to which the drug was administered

[3] = tested on: gastric mucosa; test: HCl-Ethanol-Induced Ulcer Test in Rats; format: in vivo, rat (male SD); conditions: dose 50 mg/kg, oral, 60 minutes before HCl-ethanol
Description: HCl-Ethanol-Induced Ulcer Test in Rats
Male SD rats (6 to 8 weeks old) were fasted for 24 hours before the beginning of the experiment. Each was then administered orally with 1 ml of a 60% ethanol solution containing 150 mM of hydrogen chloride. After 1 hour, the stomach was excised. Into the stomach was injected 10 ml of a 0.5% formaldehyde solution, and the stomach was fixed for 20 minutes. The injured area (mm^2) occuring on the surface of the gastric mucosa was measured, and the total injured area per rat was regarded as the injury index.
Test compounds and 0.5% CMC, as the control, were orally administered each at a dose of 0.1 ml/100 g, 60 minutes before treatment with the HCl-ethanol solution.
The ulcer formation inhibitory rate (R %) was calculated by the following equation.
A: The injury index of the control group (mm^2)
B: The injury index of the drug administered group (mm^2)

For `O=C(CSCCO)NCCCOc1cccc(CN2CCCCC2)c1` [Compound A, reference compound], the inhibition in vivo at 50 mg/kg [1] was -67%, the inhibition at 1 µg/mL [2] was 68% and the “% Inhibition (ulcer formation)” value [3] was 39%.
For `O=C(CSCc1ccco1)NC/C=C\COc1cc(CN2CCCCC2)ccn1` [Compound B, reference compound], the inhibition in vivo at 50 mg/kg [1] was -40%, the inhibition at 1 µg/mL [2] was 99% and the “% Inhibition (ulcer formation)” value [3] was 97%.
`O=C(CSCCO)NC/C=C\COc1cc(CN2CCCCC2)ccn1` [Example 1, N-[4-(4-piperidinomethyl-2-pyridyloxy)-cis-2-butenyl]-2-(2-hydroxyethylthio)acetamide] gave an inhibition in vivo at 50 mg/kg [1] of 63% and an inhibition at 1 µg/mL [2] of 86%.
In the case of `CC(=O)OCCSCC(=O)NC/C=C\COc1cc(CN2CCCCC2)ccn1` [Example 2, N-[4-(4-Piperidinomethyl-2-pyridyloxy)-cis-2-butenyl]-2-(2-acetoxyethylthio)acetamide], the inhibition in vivo at 50 mg/kg [1] is reported as 52%, the inhibition at 1 µg/mL [2] is reported as 90% and the “% Inhibition (ulcer formation)” value [3] is reported as 100%.
Molecule `CC(=O)OCCSCCCC(=O)NC/C=C\COc1cc(CN2CCCCC2)ccn1` [Example 6, N-[4-(4-Piperidinomethyl-2-pyridyloxy)-cis-2-butenyl]-4-(2-acetoxyethylthio)butyramide] has an inhibition in vivo at 50 mg/kg [1] of 73% and an inhibition at 1 µg/mL [2] of 86%.
In the case of `CCC(=O)OCCSCC(=O)NC/C=C\COc1cc(CN2CCCCC2)ccn1` [Example 7, N-[4-(4-Piperidinomethyl-2-pyridyloxy)-cis-2-butenyl]-2-(2-propionyloxyethylthio)acetamide], the inhibition in vivo at 12.5 mg/kg [1] is reported as 51%, the inhibition in vivo at 25 mg/kg [1] is reported as 63% and the “% Inhibition (ulcer formation)” value [3] is reported as 61%.
`O=C(NC/C=C\COc1cc(CN2CCCCC2)ccn1)c1cn[nH]c1` [Example 13, N-[4-(4-piperidinomethyl-2-pyridyloxy)-cis-2-butenyl]pyrazole-4-carboxamide] gave an inhibition in vivo at 25 mg/kg [1] of 62%, an inhibition in vivo at 50 mg/kg [1] of 80% and an inhibition at 1 µg/mL [2] of 84%. For the same molecule, the “% Inhibition (ulcer formation)” value [3] was 87%.
`Nc1n[nH]cc1C(=O)NC/C=C\COc1cc(CN2CCCCC2)ccn1` [Example 17, 3-Amino-N-[4-(4-piperidinomethyl-2-pyridyloxy) -cis-2-butenyl]pyrazole-4-carboxamide] was tested, and the inhibition in vivo at 25 mg/kg [1] was 73%, the inhibition in vivo at 50 mg/kg [1] was 71% and the inhibition at 1 µg/mL [2] was 83%.
For `O=C(NC/C=C\COc1cc(CN2CCCCC2)ccn1)c1cscn1` [Example 26, N-[4-(4-Piperidinomethyl-2-pyridyloxy) -cis-2-butenyl]thiazole-4-carboxamide], the inhibition at 1 µg/mL [2] was 80%.
Molecule `O=C(CCCSc1ncccn1)NC/C=C\COc1cc(CN2CCCCC2)ccn1` [Example 34, N-[4-(4-Piperidinomethyl-2-pyridyloxy) -cis-2-butenyl]-4-(2-pyrimidinylthio) butyramide] has an inhibition in vivo at 12.5 mg/kg [1] of 61%, an inhibition in vivo at 25 mg/kg [1] of 86% and an inhibition at 1 µg/mL [2] of 94%. For the same molecule, the “% Inhibition (ulcer formation)” value [3] was 79%.
In the case of `Cc1nnc(SCCCC(=O)NC/C=C\COc2cc(CN3CCCCC3)ccn2)o1` [Example 37, N-[4-(4-Piperidinomethyl-2-pyridyloxy)-cis-2-butenyl]-4-(5-methyl-1,3,4-oxadiazol-2-ylthio)butyramide], the inhibition in vivo at 50 mg/kg [1] is reported as 74% and the inhibition at 1 µg/mL [2] is reported as 99%.
`O=C(CCCSc1nc[nH]n1)NC/C=C\COc1cc(CN2CCCCC2)ccn1` [Example 41, N-[4-(4-Piperidinomethyl-2-pyridyloxy)-cis-2-butenyl]-4-(1,2,4-triazol-3-ylthio)butyramide] gave an inhibition in vivo at 25 mg/kg [1] of 61%, an inhibition in vivo at 50 mg/kg [1] of 76% and an inhibition at 1 µg/mL [2] of 85%.
With `CC(C)NC(=O)NC/C=C\COc1cc(CN2CCCCC2)ccn1` [Example 48, N-[4-(4-piperidinomethyl-2-pyridyloxy) -cis-2-butenyl]-N'-isopropylurea] the inhibition in vivo at 50 mg/kg [1] was 71%, the inhibition at 1 µg/mL [2] was 81% and the “% Inhibition (ulcer formation)” value [3] was 78%.
`O=C(NC/C=C\COc1cc(CN2CCCCC2)ccn1)NC1CCC1` [Example 58, N-Cyclobutyl-N'-[4-(4-piperidinomethyl-2-pyridyloxy) -cis-2-butenyl]urea] gave an inhibition in vivo at 50 mg/kg [1] of 56%.
